Experiment [1] has as its target T1, B-RAF G466V (Homo sapiens, UniProt P15056, G466V).
T1 construct: expressed in transfected cells; host or cells: T-Rex 293 cells (Invitrogen #R71007)
In words: Target protein degradation, assay D: T-Rex 293 cells, HA-BRAF_G466V, 384 well format. The experiment is classed as cell-based. Conditions: T-Rex 293 HA-BRAF_G466V cells, 24 hours, Examples 83-269; for DC50: Assay D; for Dmax: T-REx-293, Assay D. In outline:
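Degradation measured by high-content imaging of anti-HA immunofluorescence in fixed T-Rex 293 cells carrying inducible HA-BRAF G466V (1 ng/mL doxycycline), after 24 h PROTAC exposure at 37 °C over 300 nM–5 pM (1:3, 11 points, 0.5% DMSO). Outputs DC50 and Dmax as % of control; nuclei counts against DMSO wells gauge toxicity.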

In experiment [2] the target is T2, B-RAF V600E (Homo sapiens, UniProt P15056, V600E).
T2 construct: expressed in transfected cells; host or cells: T-Rex 293 cells (Invitrogen #R71007)
T2 sequence (P15056 whole entry V600E): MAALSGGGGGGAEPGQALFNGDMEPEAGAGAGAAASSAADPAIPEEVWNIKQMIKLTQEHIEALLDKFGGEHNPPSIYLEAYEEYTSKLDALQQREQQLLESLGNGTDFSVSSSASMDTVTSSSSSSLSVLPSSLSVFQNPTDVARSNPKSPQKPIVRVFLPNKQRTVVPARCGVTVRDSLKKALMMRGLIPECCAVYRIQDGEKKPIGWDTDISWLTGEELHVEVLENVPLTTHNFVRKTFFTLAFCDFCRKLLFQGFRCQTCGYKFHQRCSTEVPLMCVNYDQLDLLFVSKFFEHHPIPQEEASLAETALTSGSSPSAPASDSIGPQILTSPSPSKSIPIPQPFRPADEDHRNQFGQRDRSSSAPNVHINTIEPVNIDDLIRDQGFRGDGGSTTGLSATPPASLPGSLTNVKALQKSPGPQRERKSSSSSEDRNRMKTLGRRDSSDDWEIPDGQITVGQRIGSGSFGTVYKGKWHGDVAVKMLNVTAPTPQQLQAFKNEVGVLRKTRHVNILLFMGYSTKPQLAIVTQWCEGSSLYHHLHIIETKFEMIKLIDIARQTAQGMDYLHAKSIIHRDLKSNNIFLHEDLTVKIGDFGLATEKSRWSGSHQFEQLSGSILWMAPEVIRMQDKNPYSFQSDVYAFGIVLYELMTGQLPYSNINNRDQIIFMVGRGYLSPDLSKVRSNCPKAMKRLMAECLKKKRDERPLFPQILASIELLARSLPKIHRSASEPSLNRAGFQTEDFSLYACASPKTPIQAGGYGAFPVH
In words: Target protein degradation, assay C: T-Rex 293 cells, HA-BRAF_V600E, 384 well format. The class given is cell-based. Conditions: T-Rex 293 HA-BRAF_V600E cells, 24 hours, Examples 83-269; for DC50: Assay C; for Dmax: T-REx-293, Assay C. The procedure, abridged: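 After 24 h exposure to an 11-point 1:3 series (300 nM–5 pM, 0.5% DMSO), fixed T-Rex 293 cells carrying HA-BRAF V600E (induced with 1 ng/mL doxycycline) were stained anti-HA and imaged. DC50 and Dmax were derived from BRAF intensity relative to control, and cytotoxicity from nuclear counts.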

T1 sequence (P15056 whole entry G466V): as the sequence (P15056 whole entry V600E) above, with G466V, E600V counted along it

In experiment [1], `O=C1CCC(N2Cc3cc(N4CCC(CN5CCN(c6ccc(-n7cnc8ccc(Oc9c(F)ccc(NS(=O)(=O)N%10CC[C@@H](F)C%10)c9Cl)cc8c7=O)cc6)CC5)CC4)ccc3C2=O)C(=O)N1` (stereo partly drawn) [Example 199, (3R)-N-{2-chloro-3-[(3-{4-[4-({1-[2-(2,6-dioxopiperidin-3-yl)-1-oxo-2,3-dihydro-1H-isoindol-5-yl]piperidin-4-yl}methyl)piperazin-1-yl]phenyl}-4-oxo-3,4-dihydroquinazolin-6-yl)oxy]-4-fluorophenyl}-3-fluoropyrrolidine-1-sulfonamide] returned a DC50 of 1 to 10 nM and a Dmax of 35 to 70%. In experiment [2], this compound had a half-maximal degradation concentration (DC50) of 50 to 500 nM and a Dmax of 35 to 70%.

With `N#Cc1c(NS(=O)(=O)N2CC[C@@H](F)C2)ccc(F)c1Oc1ccc2ncn(-c3ccc(N4CCC5(CCN(CC6CCN(c7ccc8c(c7)CN([C@H]7CCC(=O)NC7=O)C8=O)CC6)CC5)CC4)cc3)c(=O)c2c1` [Example 200, (3R)-N-(2-cyano-3-{[3-(4-{9-[(1-{2-[(3S)-2,6-dioxopiperidin-3-yl]-1-oxo-2,3-dihydro-1H-isoindol-5-yl}piperidin-4-yl)methyl]-3,9-diazaspiro[5.5]undecan-3-yl}phenyl)-4-oxo-3,4-dihydroquinazolin-6-yl]oxy}-4-fluorophenyl)-3-fluoropyrrolidine-1-sulfonamide], in experiment [1], the DC50 was 1 to 10 nM and the greatest degradation seen (Dmax) fell in the range of 35 to 70%. Also, in experiment [2], the DC50 was in the range of 50 to 500 nM and the greatest degradation seen (Dmax) lay in the range of 35 to 70%.

For `N#Cc1c(NS(=O)(=O)N2CC[C@@H](F)C2)ccc(F)c1Oc1ccc2ncn(-c3ccc(N4CCC5(CCN(CC6CCN(c7ccc8c(c7)CN([C@@H]7CCC(=O)NC7=O)C8=O)CC6)CC5)CC4)cc3)c(=O)c2c1` [Example 201, (3R)-N-(2-cyano-3-{[3-(4-{9-[(1-{2-[(3R)-2,6-dioxopiperidin-3-yl]-1-oxo-2,3-dihydro-1H-isoindol-5-yl}piperidin-4-yl)methyl]-3,9-diazaspiro[5.5]undecan-3-yl}phenyl)-4-oxo-3,4-dihydroquinazolin-6-yl]oxy}-4-fluorophenyl)-3-fluoropyrrolidine-1-sulfonamide], in experiment [1], the DC50 is 1 to 10 nM and the Dmax fell in the range of 35 to 70%. In experiment [2], this compound came in with a DC50 of 50 to 500 nM and a Dmax of 35 to 70%.

In experiment [1], `N#Cc1c(NS(=O)(=O)N2CC[C@@H](F)C2)ccc(F)c1Oc1ccc2ncn(-c3ccc(N4CCC5(CC4)CN(CC4CCN(c6ccc7c(c6)CN([C@H]6CCC(=O)NC6=O)C7=O)CC4)C5)cc3)c(=O)c2c1` [Example 202, (3R)-N-(2-cyano-3-{[3-(4-{2-[(1-{2-[(3S)-2,6-dioxopiperidin-3-yl]-1-oxo-2,3-dihydro-1H-isoindol-5-yl}piperidin-4-yl)methyl]-2,7-diazaspiro[3.5]nonan-7-yl}phenyl)-4-oxo-3,4-dihydroquinazolin-6-yl]oxy}-4-fluorophenyl)-3-fluoropyrrolidine-1-sulfonamide] came in with a 50% degradation concentration (DC50) of 1 to 10 nM and a Dmax of 35 to 70%. In experiment [2], this compound returned a DC50 of 50 to 500 nM and a maximal degradation (Dmax) of 35 to 70%.

Turning to `N#Cc1c(NS(=O)(=O)N2CC[C@@H](F)C2)ccc(F)c1Oc1ccc2ncn(-c3ccc(N4CCC5(CC4)CN(CC4CCN(c6ccc7c(c6)CN([C@@H]6CCC(=O)NC6=O)C7=O)CC4)C5)cc3)c(=O)c2c1` [Example 203, (3R)-N-(2-cyano-3-{[3-(4-{2-[(1-{2-[(3R)-2,6-dioxopiperidin-3-yl]-1-oxo-2,3-dihydro-1H-isoindol-5-yl}piperidin-4-yl)methyl]-2,7-diazaspiro[3.5]nonan-7-yl}phenyl)-4-oxo-3,4-dihydroquinazolin-6-yl]oxy}-4-fluorophenyl)-3-fluoropyrrolidine-1-sulfonamide], the DC50 lay within 1 to 10 nM in experiment [1] and 50 to 500 nM in experiment [2]. Further, the greatest degradation seen (Dmax) in experiment [1] and in experiment [2] was 35 to 70% in each case.

Consider `N#Cc1c(NS(=O)(=O)N2CC[C@@H](F)C2)ccc(F)c1Oc1ccc2ncn(-c3ccc(N4CC(CN5CC(c6ccc7c(c6)CN([C@H]6CCC(=O)NC6=O)C7=O)C5)C4)cc3)c(=O)c2c1` [Example 204], for which, in experiment [1], the half-maximal degradation concentration (DC50) fell in the range of 1 to 10 nM and the Dmax was no more than 35%. In experiment [2], the DC50 was in the range of 50 to 500 nM and the Dmax fell in the range of 35 to 70%.

Regarding `N#Cc1c(NS(=O)(=O)N2CC[C@@H](F)C2)ccc(F)c1Oc1ccc2ncn(-c3ccc(N4CC(CN5CC(c6ccc7c(c6)CN([C@@H]6CCC(=O)NC6=O)C7=O)C5)C4)cc3)c(=O)c2c1` [Example 205, (3R)-N-(2-cyano-3-{[3-(4-{3-[(3-{2-[(3R)-2,6-dioxopiperidin-3-yl]-1-oxo-2,3-dihydro-1H-isoindol-5-yl}azetidin-1-yl)methyl]azetidin-1-yl}phenyl)-4-oxo-3,4-dihydroquinazolin-6-yl]oxy}-4-fluorophenyl)-3-fluoropyrrolidine-1-sulfonamide], in experiment [1], the DC50 lay within 1 to 10 nM and the maximal degradation (Dmax) is no more than 35%. For the same compound, in experiment [2], the 50% degradation concentration (DC50) fell in the range of 50 to 500 nM and the Dmax is no more than 35%.

Turning to `CN(CC1CCN(c2ccc(-n3cnc4ccc(Oc5c(F)ccc(NS(=O)(=O)N6CC[C@@H](F)C6)c5C#N)cc4c3=O)cc2)CC1)[C@H]1C[C@@H](Oc2ccc3c(c2)CN([C@H]2CCC(=O)NC2=O)C3=O)C1` [Example 206, (3R)-N-{2-cyano-4-fluoro-3-[(3-{4-[4-({methyl[(1r,3r)-3-({2-[(3S)-2,6-dioxopiperidin-3-yl]-1-oxo-2,3-dihydro-1H-isoindol-5-yl}oxy)cyclobutyl]amino}methyl)piperidin-1-yl]phenyl}-4-oxo-3,4-dihydroquinazolin-6-yl)oxy]phenyl}-3-fluoropyrrolidine-1-sulfonamide], in experiment [1], the DC50 was in the range of 1 to 10 nM and the Dmax was no more than 35%. In experiment [2], this compound came in with a DC50 of 50 to 500 nM and a Dmax of no less than 70%.

For `N#Cc1c(NS(=O)(=O)N2CC[C@@H](F)C2)ccc(F)c1Oc1ccc2ncn(-c3ccc(C4CCCN(CC5CCN(c6ccc7c(c6)CN([C@H]6CCC(=O)NC6=O)C7=O)CC5)C4)cc3)c(=O)c2c1` (stereo partly drawn) [Example 207, (3R)-N-(2-cyano-3-{[3-(4-{1-[(1-{2-[(3S)-2,6-dioxopiperidin-3-yl]-1-oxo-2,3-dihydro-1H-isoindol-5-yl}piperidin-4-yl)methyl]piperidin-3-yl}phenyl)-4-oxo-3,4-dihydroquinazolin-6-yl]oxy}-4-fluorophenyl)-3-fluoropyrrolidine-1-sulfonamide], in experiment [1], the DC50 is 1 to 10 nM and the greatest degradation seen (Dmax) was 35 to 70%. In experiment [2], this compound came in with a DC50 of 50 to 500 nM and a Dmax of no less than 70%.

Regarding `N#Cc1c(NS(=O)(=O)N2CC[C@@H](F)C2)ccc(F)c1Oc1ccc2ncn(-c3ccc(C4CCN(CC5CCN(c6ccc7c(c6)CN([C@H]6CCC(=O)NC6=O)C7=O)CC5)C4)cc3)c(=O)c2c1` (stereo partly drawn) [Example 208, (3R)-N-(2-cyano-3-{[3-(4-{1-[(1-{2-[(3S)-2,6-dioxopiperidin-3-yl]-1-oxo-2,3-dihydro-1H-isoindol-5-yl}piperidin-4-yl)methyl]pyrrolidin-3-yl}phenyl)-4-oxo-3,4-dihydroquinazolin-6-yl]oxy}-4-fluorophenyl)-3-fluoropyrrolidine-1-sulfonamide], the DC50 in experiment [1] was 1 to 10 nM; in experiment [2], 5 to 50 nM. Further, the figures for the maximal degradation (Dmax) in experiment [1] and in experiment [2] were no more than 35% and 35 to 70%, respectively.

As usually defined, the DC50 is the concentration at which degradation of the target reaches its halfway point. A low value points to degradation at low concentration. What is called Dmax is the largest share of the target that was removed. Low values mean shallow degradation, high ones deep degradation.

Source of the values: patent publication US11957759B1, “Rapidly accelerated fibrosarcoma (RAF) degrading compounds and associated methods of use” (Arvinas Operations, Inc., priority 2022, dated 2024).
